In US10993923B2, “Method for ameliorating fibrosis using 1-[4-chloro-3-(trifluoromethyl)phenyl]-3-[3-(4-cyanophenoxy)phenyl]urea” (priority 2016, dated 2021):

What was measured:
[1] = test system: TGF-β, PDGFR and STAT3 pathways in LX2 cells; test: Western blot of signalling proteins in LX2 cells; format: cell-based, human; settings: FIG. 16D, 16E
Description: Rat immortal hepatic stellate cell line HSC-T6 and LX2 human hepatic stellate cell line were provided by Professor Scott Friedman of Mount Sinai Hospital in New York, USA. The primary mouse HSCs were obtained via the way: after intubating the hepatic portal vein of the mouse, the cells were perfused with […] and ethylene glycol bis-aminoethyl ether tetraacetic acid (EGTA) buffer in situ, and then collagenase was injected to digest the liver tissue, and then the primary mouse HSCs were isolated by Histodnz gradient. HSC-T6 cells were cultured in Waymouth medium; LX2 cells and primary mouse HSCs were cultured in Dulbecco's Modified Eagle Medium (DMEM) containing 10% fetal bovine serum (FBS), 100 μg/mL penicillin, 100 μg/mL streptomycin, and 2 mM L-glutamine HSC-T6 cells, LX2 cells and primary mouse HSCs were cultured in a humidified incubator containing 5% carbon dioxide at 37° C. After adding the FBS, the resting HSC is started. […] Whole-cell extracts were obtained via RIPA buffer (Millipore, USA) and protein concentrations were quantified via a BCA protein assay kit (Thermo Fisher Scientific, USA). 20 or 25 μg of protein was added to various percentages of SDS-sodium dodecyl sulfate-acrylamide gel and blotted onto a polyvinylidene fluoride (PVDF) membrane. […] Proteins were detected by Immobilon Western Chemiluminescent HRP substrate (Millipore, USA) or ECL detection system (UVP Corporation, USA). […] Plasmids encoding the human wild-type SHP-1 and SHP-1 mutant, in which the N-SH2 domain was […] was changed into an […]) were cloned into the pCMV6-entry vector with myc-tag. These mutants were confirmed through DNA sequencing. […] (Chicago, Ill., USA).

LX2 cells = test: Apoptosis (Annexin V / propidium iodide flow cytometry), LX2 cells; format: cell-based, human; settings: LX2; FIG. 16D, 16E
Description: Rat immortal hepatic stellate cell line HSC-T6 and LX2 human hepatic stellate cell line were provided by Professor Scott Friedman of Mount Sinai Hospital in New York, USA. The primary mouse HSCs were obtained via the way: after intubating the hepatic portal vein of the mouse, the cells were perfused with […] and ethylene glycol bis-aminoethyl ether tetraacetic acid (EGTA) buffer in situ, and then collagenase was injected to digest the liver tissue, and then the primary mouse HSCs were isolated by Histodnz gradient. HSC-T6 cells were cultured in Waymouth medium; LX2 cells and primary mouse HSCs were cultured in Dulbecco's Modified Eagle Medium (DMEM) containing 10% fetal bovine serum (FBS), 100 μg/mL penicillin, 100 μg/mL streptomycin, and 2 mM L-glutamine HSC-T6 cells, LX2 cells and primary mouse HSCs were cultured in a humidified incubator containing 5% carbon dioxide at 37° C. After adding the FBS, the resting HSC is started. […] The experiment was carried out following the manufacturer's instructions, and each group was triple repetition. […] The proportion of apoptotic cells was mixed the early (Annexin V+/PI-) and the late (Annexin V+/PI+) apoptotic cells measured by BD FACS Verse flow cytometry (BD, USA). Plasmids encoding the human wild-type SHP-1 and SHP-1 mutant, in which the N-SH2 domain was […] was changed into an […]) were cloned into the pCMV6-entry vector with myc-tag. These mutants were confirmed through DNA sequencing. […] (Chicago, Ill., USA).

[2] = test system: CCl4-induced hepatic fibrosis in mice; test: CCl4-induced hepatic fibrosis mice treatment model; format: in vivo, male C57BL/6J mice; settings: compound 5, 10, or 20 mg/kg or sorafenib 10 mg/kg, with CCl4 for 6 weeks after 2 weeks CCl4 induction; FIG. 12A
Excerpt: (§1) In male C57BL/6J mice, liver fibrosis was induced by carbon tetrachloride (CCl4). The mice were given peritoneal injection of carbon tetrachloride for 4 or 8 weeks every two weeks.
(§2) The mice liver samples were stored in 10% formaldehyde, dehydrated with gradient alcohol, embedded in paraffin blocks, sectioned to a thickness of 3 μm, placed on glass slides, and stained with Picrosirius Red Stain kit (ScyTek, USA), following the manufacturer's instructions. The severity of liver fibrosis was graded according to the Ishak fibrosis score. Quantitative collagen-positive area (qCPA) was determined by densitometry via ImageJ software. Hepatic hydroxyproline concentrations were measured by the hydroxyproline assay kit (Biovision, USA), following the manufacturer's instructions Immunohistochemistry was performed by the Leica BOND-MAX automatic chromatograph (Leica Biosystems, Germany), following the manufacturer's instructions.
Continuous variables are presented as mean (standard error), and categorical data are presented as number (percentage), as appropriate. Differences between subgroups were evaluated using the Student t test. Spearman's correlation was used for the association between SHP-1 and serum alanine aminotransferase (ALT). The mouse survival rate was estimated using the Kaplan-Meier method. The log-rank test was used to determine the statistical differences in survival of the different experimental groups. Statistical analysis was performed using STATA (version 13, Stata Corp, College Station, Tex., USA). All tests were two-sided, and P<0.05 was considered significant.

[3] = test system: CCl4-induced hepatic fibrosis in mice; test: CCl4-induced hepatic fibrosis mice prevention model; format: in vivo, male C57BL/6J mice; settings: concurrently administered with CCl4 for 4 weeks; FIG. 11A-11E
Excerpt: as §1, §2

SHP-1 [4] = target: T1, SHP-1 (Rattus norvegicus, UniProt P81718); test: SHP-1 phosphatase activity, HSC-T6 cells; format: cell-based; settings: sorafenib 5 μM, compound 2.5 or 5 μM, FIG. 16C
T1 construct: endogenous in cells; host or cells: HSC-T6 cells

SHP-1 [5] = target: T2, SHP-1 (Homo sapiens, UniProt P29350); test: SHP-1 phosphatase activity, LX2 cells; format: cell-based; settings: LX2; sorafenib 5 μM, compound 2.5 or 5 μM; FIG. 16C
T2 construct: LX2 cell protein extract were reacted with anti-SHP-1 antibody in immunoprecipitation buffer overnight; endogenous in cells; host or cells: LX2 cells
Description: After drug treatment, mouse fibroblasts (NIH3T3 cell line), human lung epithelial cells (A549 cell line) or LX2 cell protein extract were reacted with anti-SHP-1 antibody in immunoprecipitation buffer overnight. Protein A/G Sepharose Fast Flow Beads (GE) were added to each sample, followed by a rotation reaction at 4° C. for 3 hours. The 96EnzChek® tyrosine phosphatase assay kit (R-22067) was used for SHP-1 activity assay (Invitrogen, USA).
Plasmids encoding the human wild-type SHP-1 and SHP-1 mutant, in which the N—SH2 domain was truncated (dN1) or one aspartic acid at site 61 was changed into an alanine residue (D61A) were cloned into the pCMV6-entry vector with myc-tag. These mutants were confirmed through DNA sequencing. Smart-pool siRNA, including the control (D-001810-10), and SHP-1 (PTPN6, L-009778-00-0005) were obtained from Dharmacon Inc. (Chicago, Ill., USA). For transient expression, SHP-1 plasmids or siRNA (final concentration, 100 nM) with the Lipofectamine 2000 transfection reagent were pretransfected into the LX2 cells for 24 h, following the manufacturer's instructions.

T2 sequence (P29350 whole entry): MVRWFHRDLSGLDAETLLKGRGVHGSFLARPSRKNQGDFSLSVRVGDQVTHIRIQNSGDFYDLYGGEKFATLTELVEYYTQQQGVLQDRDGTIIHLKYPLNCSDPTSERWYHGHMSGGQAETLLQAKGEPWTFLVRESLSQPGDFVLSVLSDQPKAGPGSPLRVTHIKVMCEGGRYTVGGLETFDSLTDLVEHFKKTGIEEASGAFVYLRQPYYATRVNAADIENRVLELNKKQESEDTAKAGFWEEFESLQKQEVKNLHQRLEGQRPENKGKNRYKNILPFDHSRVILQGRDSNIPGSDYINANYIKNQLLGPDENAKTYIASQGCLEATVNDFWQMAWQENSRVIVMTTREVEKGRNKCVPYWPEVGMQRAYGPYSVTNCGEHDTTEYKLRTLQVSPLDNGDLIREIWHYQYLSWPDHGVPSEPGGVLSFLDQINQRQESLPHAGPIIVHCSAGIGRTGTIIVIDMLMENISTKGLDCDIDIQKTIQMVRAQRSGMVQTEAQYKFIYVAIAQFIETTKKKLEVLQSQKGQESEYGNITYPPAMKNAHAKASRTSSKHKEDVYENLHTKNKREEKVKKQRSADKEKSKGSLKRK
T1 sequence (P81718 whole entry): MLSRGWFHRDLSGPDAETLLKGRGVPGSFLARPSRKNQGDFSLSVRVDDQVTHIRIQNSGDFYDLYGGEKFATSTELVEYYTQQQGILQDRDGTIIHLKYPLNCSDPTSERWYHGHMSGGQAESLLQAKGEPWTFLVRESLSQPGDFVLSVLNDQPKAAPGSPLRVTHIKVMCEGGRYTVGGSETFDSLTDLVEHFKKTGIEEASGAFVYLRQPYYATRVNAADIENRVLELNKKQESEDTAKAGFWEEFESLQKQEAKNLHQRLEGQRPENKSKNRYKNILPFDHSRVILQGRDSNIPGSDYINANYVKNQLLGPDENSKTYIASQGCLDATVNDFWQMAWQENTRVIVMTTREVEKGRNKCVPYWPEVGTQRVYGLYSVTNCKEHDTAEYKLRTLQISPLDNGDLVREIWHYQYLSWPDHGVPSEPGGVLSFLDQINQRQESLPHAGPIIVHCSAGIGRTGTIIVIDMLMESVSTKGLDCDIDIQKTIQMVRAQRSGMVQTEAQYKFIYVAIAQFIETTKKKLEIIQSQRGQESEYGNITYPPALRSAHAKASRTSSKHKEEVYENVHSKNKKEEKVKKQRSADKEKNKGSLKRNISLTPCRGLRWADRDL

Row | Molecule | p-STAT3 in compound-treated LX2 cells in the presence of a phosphatase inhibitor [1] | compound-induced apoptosis of LX2 cells in the presence of a phosphatase inhibitor (LX2 cells) | hepatic fibrosis (picrosirius red staining) [2] | hepatic fibrosis (Picrosirius Red staining, qCPA, Ishak fibrosis score, α-SMA expression, hydroxyproline concentration) [3] | SHP-1 activity (SHP-1 [4]) | SHP-1 activity (SHP-1 [5])
1 | Sodium vanadate [reference compound] | upregulation | rescued | – | – | – | –
2 | O=C(O)COc1ccc(C(=O)CBr)cc1 [PTP inhibitor III, reference compound] | upregulated | rescued | – | – | – | –
3 | CNC(=O)c1cc(Oc2ccc(NC(=O)Nc3ccc(Cl)c(C(F)(F)F)c3)cc2)ccn1 [sorafenib, reference compound] | – | – | significantly improved hepatic fibrosis | significant fibrosis regression | increases the activity of SHP-1 | increases the activity of SHP-1
